The test system of series [1] is DPP-IV, Neprilysin, Chymotrypsin, Trypsin, Pepsin. Description: enzyme resistance, protease panel (Table 2 description). Type of series: in vitro ADME. The protocol:
Peptides for evaluation were prepared to a concentration of 1.0 mg/mL solutions in either pure water, sterile saline for injection (0.9% w/v NaCl/water) or 1× PBS (Dulbecco). 100 μL (100 μg/mL peptide) of these solutions was added to 900 μL of each protease solution. Additional experiments were performed examining protein degradation during exposure to serum and gastric fluid. For serum studies, peptides were incubated with 50% female Sprague-Dawley strain rat serum (SD rat serum). For gastric fluid studies, peptides were incubated 1:1 (volume:volume), fresh rat gastric fluid.
The peptide and enzyme (or serum or gastric fluid) were co-incubated in a temperature regulated water bath at 37° C. for the duration of the experiment. During each experiment 100 μL aliquots (10 μg peptide) of the incubated peptide-enzyme mixture were withdrawn periodically, quenched by addition of an equal volume of 5% TFA (v/v) in 1:1 water/acetonitrile to arrest proteolytic activity, and analyzed by liquid chromatography-mass spectrometry (LC/MS): Agilent Polaris C8-A column (4.6×100 mm, 3 micron) using a linear binary gradient of 10-90% MeCN (0.1% TFA v/v) in water (0.1% TFA v/v) over 30 minutes at 1.5 mL min^−1 at ambient temperature. Analytes were detected by both UV absorption at 210 nm and ionization using a Waters 3100 mass detector (ESI^+ mode). New peptidic species (fragments) derived from enzymatic cleavage of peptides were analyzed post-process, and their molecular masses were used to identify the precise cleavage position (highlighting the scissile bond in each case).

The target in a further series is T1, hGluc-R (Homo sapiens, UniProt P47871).
T1 construct: expressed in transfected cells
The experiment in a line: cAMP functional assay, cells expressing human glucagon receptor (primary assay). In kind it is cell-based. The following applies: n = 2.

The target in another series is T2, hGLP-1R (Homo sapiens, UniProt P43220).
T2 construct: expressed in transfected cells
The experiment in a line: cAMP functional assay, cells expressing human GLP-1 receptor (primary assay). Type of series: cell-based. The following applies: n = 2.

The target in a further series is T3, hGIP-R (Homo sapiens, UniProt P48546).
T3 construct: expressed in transfected cells
T3 sequence (P48546 22-466): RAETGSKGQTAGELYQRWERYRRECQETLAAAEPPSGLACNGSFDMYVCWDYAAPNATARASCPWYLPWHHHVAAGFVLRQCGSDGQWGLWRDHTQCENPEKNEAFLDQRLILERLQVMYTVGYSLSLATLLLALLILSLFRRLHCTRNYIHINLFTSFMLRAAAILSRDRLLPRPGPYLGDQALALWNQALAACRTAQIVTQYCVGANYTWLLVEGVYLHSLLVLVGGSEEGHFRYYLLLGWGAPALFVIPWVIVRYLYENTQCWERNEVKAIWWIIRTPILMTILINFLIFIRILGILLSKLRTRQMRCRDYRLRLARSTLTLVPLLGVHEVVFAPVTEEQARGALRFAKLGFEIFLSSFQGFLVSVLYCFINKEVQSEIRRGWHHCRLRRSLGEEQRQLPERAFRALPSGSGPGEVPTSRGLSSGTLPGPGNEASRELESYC
Description: cAMP functional assay, cells expressing human GIP receptor (primary assay). Type of series: cell-based. The note with it: n = 2.

A word on the EC50: it is the midpoint of the concentration-response curve.

Read-outs that look alike come from different tables or passages of the source. *1 amine or outer side, *2 acyl side, *3 side chain or, on linkers, in order; H or OH if unused. Where a SMILES comes first, the peptide text is derived from it. Primed or numbered codes have the meaning given here. Where no end group is shown, it is not given here. Side-chain parts run from the residue outwards. [ ]: non-standard residue; d: D form. The star is where a group is joined. ξ: configuration not given here. Palmitoyl(16-(5-tetrazolyl)) = O=C(CCCCCCCCCCCCCCCc1nnn[nH]1)*; γGlu = O=C(O)[C@H](CCC(=O)[*:2])N[*:1]; Palmitoyl = CCCCCCCCCCCCCCCC(=O)*; αMeF = C[C@](N)(Cc1ccccc1)C(=O)O; ξαMeF = CC(N)(Cc1ccccc1)C(=O)O; αMeK = C[C@](N)(CCCCN)C(=O)O; ξαMeK = CC(N)(CCCCN)C(=O)O; PEG2′ = not defined here; Aib = CC(C)(N)C(=O)O

T2 sequence (P43220 24-463): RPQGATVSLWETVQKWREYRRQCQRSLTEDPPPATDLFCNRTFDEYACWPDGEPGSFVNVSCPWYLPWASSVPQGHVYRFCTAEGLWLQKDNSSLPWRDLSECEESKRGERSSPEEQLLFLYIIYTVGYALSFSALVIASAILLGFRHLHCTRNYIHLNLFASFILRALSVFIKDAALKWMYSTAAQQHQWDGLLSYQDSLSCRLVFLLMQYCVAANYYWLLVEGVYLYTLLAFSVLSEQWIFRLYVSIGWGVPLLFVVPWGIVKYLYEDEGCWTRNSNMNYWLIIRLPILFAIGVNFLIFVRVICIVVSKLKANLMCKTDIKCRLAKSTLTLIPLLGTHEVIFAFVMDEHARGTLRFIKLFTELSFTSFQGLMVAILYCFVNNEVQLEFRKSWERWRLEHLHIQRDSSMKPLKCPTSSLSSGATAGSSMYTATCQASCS
T1 sequence (P47871 26-477): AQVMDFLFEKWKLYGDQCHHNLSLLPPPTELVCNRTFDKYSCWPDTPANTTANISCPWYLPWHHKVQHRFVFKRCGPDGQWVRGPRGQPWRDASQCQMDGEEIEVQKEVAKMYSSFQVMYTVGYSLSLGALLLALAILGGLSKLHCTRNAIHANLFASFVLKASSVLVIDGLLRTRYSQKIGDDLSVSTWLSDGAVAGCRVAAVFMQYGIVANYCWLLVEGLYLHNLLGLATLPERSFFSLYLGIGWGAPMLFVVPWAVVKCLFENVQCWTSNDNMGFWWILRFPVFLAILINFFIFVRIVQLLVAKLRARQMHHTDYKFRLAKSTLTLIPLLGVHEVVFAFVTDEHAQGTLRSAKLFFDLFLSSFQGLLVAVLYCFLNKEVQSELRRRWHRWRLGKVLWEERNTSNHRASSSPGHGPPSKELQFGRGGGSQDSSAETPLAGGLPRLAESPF

For the compound `CCCCCCCCCCCCCCCC(=O)N[C@@H](CCC(=O)NCCCC[C@H](NC(=O)CNC(=O)CNC(=O)C(C)(CCCCN)NC(=O)[C@@H](NC(=O)[C@@H](NC(=O)C(C)(Cc1ccccc1)NC(=O)[C@H](C)NC(=O)[C@@H](NC(=O)C(C)(Cc1ccccc1)NC(=O)[C@H](CCC(=O)O)NC(=O)C(C)(CCCCN)NC(=O)[C@H](C)NC(=O)[C@H](C)NC(=O)[C@H](CCC(N)=O)NC(=O)CNC(=O)[C@H](CCC(=O)O)NC(=O)[C@H](CC(C)C)NC(=O)C(C)(Cc1ccccc1)NC(=O)[C@H](CO)NC(=O)[C@H](CO)NC(=O)[C@@H](NC(=O)[C@H](CC(=O)O)NC(=O)[C@H](CO)NC(=O)[C@@H](NC(=O)C(C)(Cc1ccccc1)NC(=O)[C@H](CO)NC(=O)CNC(=O)[C@H](CCC(=O)O)NC(=O)C(C)(C)NC(=O)[C@@H](N)Cc1c[nH]cn1)[C@@H](C)O)C(C)C)[C@@H](C)CC)C(C)C)C(C)C)C(N)=O)C(=O)O` (stereo partly drawn) [SEQ ID NO: 54, H-(Aib)^2-EG-(S)^5-(α-MeF)^6-TSDV^10 SS-(α-MeF)^13-LE^15 GQAA-(α-MeK)^20 E-(α-MeF)^22-IA-(α-MeF)^25-(V)^26-V-(α-MeK)^28-G-(G)^30-K(Ε-γ-E-Palm)] (H-H[Aib]EGS[ξαMeF]TSDVSS[ξαMeF]LEGQAA[ξαMeK]E[ξαMeF]IA[ξαMeF]VV[ξαMeK]GGK([γGlu-Palmitoyl])-NH2), the “enzyme resistance (DPP-IV, Neprilysin, Chymotrypsin, Trypsin, Pepsin)” value (“enzyme resistance” below) in series [1] was “Excellent enzyme resistance”.
As to `CC[C@H](C)[C@H](NC(=O)[C@](C)(Cc1ccccc1)NC(=O)[C@H](CCC(=O)O)NC(=O)[C@](C)(CCCCN)NC(=O)[C@H](C)NC(=O)[C@H](C)NC(=O)[C@H](CCC(=O)O)NC(=O)CNC(=O)[C@H](CCC(=O)O)NC(=O)[C@H](CC(C)C)NC(=O)[C@](C)(Cc1ccccc1)NC(=O)[C@H](CO)NC(=O)[C@H](CO)NC(=O)[C@@H](NC(=O)[C@H](CC(=O)O)NC(=O)[C@H](CO)NC(=O)[C@@H](NC(=O)[C@](C)(Cc1ccccc1)NC(=O)[C@H](CO)NC(=O)CNC(=O)[C@H](CCC(=O)O)NC(=O)C(C)(C)NC(=O)[C@@H](N)Cc1c[nH]cn1)[C@@H](C)O)C(C)C)C(=O)N[C@@H](C)C(=O)N[C@@](C)(Cc1ccccc1)C(=O)N[C@H](C(=O)N[C@H](C(=O)N[C@@](C)(CCCCN)C(=O)NCC(=O)NCC(=O)N[C@@H](CCCCN)C(N)=O)C(C)C)C(C)C` [SEQ ID NO: 61, H-(Aib)^2-EG-(S)^5-(α-MeF)^6-TSDV^10 SS-(α-MeF)^13-LE^15 G-(E)^17-AA-(α-MeK)^20 E-(α-MeF)^22-IA-(α-MeF)^25-(V)^26-V-(α-MeK)^28-G-(G)^30-(K)^31] (H-H[Aib]EGS[αMeF]TSDVSS[αMeF]LEGEAA[αMeK]E[αMeF]IA[αMeF]VV[αMeK]GGK-NH2), the concentration giving a half-maximal response (EC50) was found to be 30.4 nM on hGluc-R, 0.034 nM at hGLP-1R and 99.7 nM at hGIP-R. For the same compound, the “enzyme resistance” value in series [1] is reported as “Excellent enzyme resistance”.
Consider `CCCCCCCCCCCCCCCC(=O)N[C@@H](CCC(=O)NCCCC[C@H](NC(=O)CNC(=O)CNC(=O)[C@](C)(CCCCN)NC(=O)[C@@H](NC(=O)[C@@H](NC(=O)[C@](C)(Cc1ccccc1)NC(=O)[C@H](C)NC(=O)[C@@H](NC(=O)[C@](C)(Cc1ccccc1)NC(=O)[C@H](CCC(=O)O)NC(=O)[C@](C)(CCCCN)NC(=O)[C@H](C)NC(=O)[C@H](C)NC(=O)[C@H](CCC(=O)O)NC(=O)CNC(=O)[C@H](CCC(=O)O)NC(=O)[C@H](CC(C)C)NC(=O)[C@](C)(Cc1ccccc1)NC(=O)[C@H](CO)NC(=O)[C@H](CO)NC(=O)[C@@H](NC(=O)[C@H](CC(=O)O)NC(=O)[C@H](CO)NC(=O)[C@@H](NC(=O)[C@](C)(Cc1ccccc1)NC(=O)[C@H](CO)NC(=O)CNC(=O)[C@H](CCC(=O)O)NC(=O)C(C)(C)NC(=O)[C@@H](N)Cc1c[nH]cn1)[C@@H](C)O)C(C)C)[C@@H](C)CC)C(C)C)C(C)C)C(N)=O)C(=O)O` [SEQ ID NO: 59, H-(Aib)^2-EG-(S)^5-(α-MeF)^6-TSDV^10 SS-(α-MeF)^13-LE^15 G-(E)^17-AA-(α-MeK)^20 E-(α-MeF)^22-IA-(α-MeF)^25-(V)^26-V-(α-MeK)^28-G-(G)^30-K(Ε-γ-E-Palm)] (H-H[Aib]EGS[αMeF]TSDVSS[αMeF]LEGEAA[αMeK]E[αMeF]IA[αMeF]VV[αMeK]GGK([γGlu-Palmitoyl])-NH2), for which the 50% effective concentration (EC50) worked out at 89.8 nM at hGluc-R, 0.218 nM on hGLP-1R and 89.8 nM at hGIP-R. Besides, in series [1], the “enzyme resistance” value is reported as “Excellent enzyme resistance”.
In the case of “H-(Aib)^2-EG-(S)^5-(α-MeF)^6-TSDV^10 SS-(α-MeF)^13-LE^15 GQAA-(α-MeK)^20 E-(α-MeF)^22-IA-(α-MeF)^25-(V)^26-V-(α-MeK)^28-G-(G)^30-K(Ε-γ-E-(PEG)^2-Tetrazolylpalm) (H[Aib]EGS[αMeF]TSDVSS[αMeF]LEGQAA[αMeK]E[αMeF]IA[αMeF]VV[αMeK]GGK([γGlu-PEG2′-Palmitoyl(16-(5-tetrazolyl))]); not fully specified; printed as H-(Aib)^2-EG-(S)^5-(α-MeF)^6-TSDV^10 SS-(α-MeF)^13-LE^15 GQAA-(α-MeK)^20 E-(α-MeF)^22-IA-(α-MeF)^25-(V)^26-V-(α-MeK)^28-G-(G)^30-K(Ε-γ-E-(PEG)^2-Tetrazolylpalm)) [SEQ ID NO: 56]”, the “enzyme resistance” value in series [1] is “Excellent enzyme resistance”.
With “H-(Aib)^2-EG-(S)^5-(α-MeF)^6-TSDV^10 SS-(α-MeF)^13-LE^15 GQAA-(α-MeK)^20 E-(α-MeF)22^-IA-(α-MeF)^25-(V)^26-V-(α-MeK)^28-G-(G)^30-K(Ε-γ-E-Tetrazolylpalm) (H[Aib]EGS[αMeF]TSDVSS[αMeF]LEGQAA[αMeK]E[αMeF]IA[αMeF]VV[αMeK]GGK([γGlu-Palmitoyl(16-(5-tetrazolyl))])) [SEQ ID NO: 55]”, the “enzyme resistance” value in series [1] is on record as “Excellent enzyme resistance”.
“H-(Aib)^2-EG-(S)^5-(α-MeF)^6-TSDV^10 SS-(α-MeF)^13-LE^15 GQAA-(α-MeK)^20 E-(α-MeF)^22-IA-(α-MeF)^25-(V)^26-V-(α-MeK)^28-G-(G)^30-K(Ε-Tetrazolylpalm) (H[Aib]EGS[αMeF]TSDVSS[αMeF]LEGQAA[αMeK]E[αMeF]IA[αMeF]VV[αMeK]GGK(Palmitoyl(16-(5-tetrazolyl))); not fully specified (C-terminus); printed as H-(Aib)^2-EG-(S)^5-(α-MeF)^6-TSDV^10 SS-(α-MeF)^13-LE^15 GQAA-(α-MeK)^20 E-(α-MeF)^22-IA-(α-MeF)^25-(V)^26-V-(α-MeK)^28-G-(G)^30-K(Ε-Tetrazolylpalm)) [SEQ ID NO: 53]”: the EC50 with hGLP-1R (read-out: Primary assay EC50 (n = 2) hGLP-1R) is 0.0451 nM. Besides, the “enzyme resistance” value in series [1] is recorded as “Excellent enzyme resistance”.

The values are drawn from patent US20160318987A1 (MEDIMMUNE LIMITED, priority 2013, published 2016).
